Measured values reported in ChEMBL document CHEMBL4145514, “Unexplored antifungal activity of linear battacin lipopeptides against planktonic and mature biofilms of C. albicans” (Eur J Med Chem, 2018).
Values after ≈ are worked out from the molar mass of the structure shown. Each block holds one compound with its values, some of them ahead of it. Active and inactive are the calls of the source. No cut-off for these calls is given here. Square brackets hold non-standard residues; d marks the D form. Peptide text beside a SMILES is read from it. * marks the point of attachment. ξ: configuration not given here. Hexanoyl(4ξ-Me) = CCC(C)CCC(=O)*; dDab = NCC[C@@H](N)C(=O)O; Dab = NCC[C@H](N)C(=O)O

Legend:
[1] = system: Candida albicans; test: Antifungal activity against Candida albicans SC5314 after 48 hrs; assay type: functional; settings: SC5314, 48 h
[2] = system: Lipid bilayer; test: Disruption of phosphatidylcholine/ phosphatidylinositol/phosphatidylethanolamine membrane at 200 uM by colorimetric assay
[3] = system: Candida albicans; test: Antibiofilm activity against Candida albicans SC5314 incubated for overnight by XTT assay; assay type: functional
[4] = system: Candida albicans; test: Induction of eradication of 24 hrs old preformed Candida albicans SC5314 biofilm after 24 to 48 hrs by XTT assay; assay type: functional
[5] = system: Candida albicans; test: Induction of eradication of 48 hrs old preformed Candida albicans SC5314 biofilm up to 125 uM after 24 to 48 hrs by XTT assay; assay type: functional, organism-based
[6] = Haemolytic activity in mouse RBC at 6 uM incubated for 1 hr relative to control; assay type: ADME, cell-based, Erythrocyte; settings: mouse red blood cells (erythrocytes), read-out: Activity
[7] = system: Candida albicans; test: Induction of morphological changes in Candida albicans SC5314 assessed as disruption of fungal cell walls at 0.5 to 10 times MIC after 45 mins by Uranyl acetate/Lead citrate staining based transmission electron microscopic analysis; assay type: functional, organism-based
[8] = system: Candida albicans; test: Induction of morphological changes in Candida albicans SC5314 assessed as disruption of fungal cell membranes at 0.5 to 10 times MIC after 45 mins by Uranyl acetate/Lead citrate staining based transmission electron microscopic analysis; assay type: functional, organism-based
[9] = system: Candida albicans; test: Induction of morphological changes in Candida albicans SC5314 assessed as necrosis of cytoplasm at 0.5 to 10 times MIC after 45 mins by Uranyl acetate/Lead citrate staining based transmission electron microscopic analysis; assay type: functional, organism-based
[10] = system: Candida albicans; test: Synergistic antifungal activity against Candida albicans SC5314 after 48 hrs in presence of 400 nmol AmB; assay type: functional; settings: SC5314, 48 h
[11] = system: Candida albicans; test: Synergistic antifungal activity against Candida albicans SC5314 assessed as FIC index after 48 hrs in presence of 400 nmol AmB; assay type: functional
[12] = system: Candida albicans; test: Synergistic antifungal activity against Candida albicans SC5314 after 48 hrs in presence of 800 nmol AmB; assay type: functional; settings: SC5314, 48 h
[13] = system: Candida albicans; test: Synergistic antifungal activity against Candida albicans SC5314 assessed as FIC index after 48 hrs in presence of 800 nmol AmB; assay type: functional
[14] = system: Candida albicans; test: Ratio of MIC for Candida albicans SC5314 to MIC for Candida albicans SC5314 in presence of 400 nmol AmB; assay type: functional
[15] = system: Candida albicans; test: Ratio of MIC for Candida albicans SC5314 to MIC for Candida albicans SC5314 in presence of 800 nmol AmB; assay type: functional
[16] = system: Candida albicans; test: Potency index, ratio of MIC for polymyxin B to compound MIC for antifungal activity against Candida albicans SC5314; assay type: functional

MIC [1]: > 100 µM | Activity [2]: inactive
SMILES: CCC(=O)N[C@H](CCN)C(=O)N[C@@H](CCN)C(=O)N[C@@H](CCN)C(=O)N[C@@H](CC(C)C)C(=O)N[C@H](Cc1ccccc1)C(=O)N[C@@H](CCN)C(=O)N[C@@H](CCN)C(=O)N[C@@H](CC(C)C)C(N)=O

MIC [1]: > 100 µM
SMILES: CC(C)C[C@H](NC(=O)[C@H](CCN)NC(=O)[C@H](CCN)NC(=O)[C@@H](Cc1ccccc1)NC(=O)[C@H](CC(C)C)NC(=O)[C@H](CCN)NC(=O)[C@H](CCN)NC(=O)[C@H](N)CCN)C(N)=O (H-[dDab][Dab][Dab]L[dF][Dab][Dab]L-NH2)

MIC [1]: > 100 µM | Activity [2]: inactive
SMILES: CCCC(=O)N[C@H](CCN)C(=O)N[C@@H](CCN)C(=O)N[C@@H](CCN)C(=O)N[C@@H](CC(C)C)C(=O)N[C@H](Cc1ccccc1)C(=O)N[C@@H](CCN)C(=O)N[C@@H](CCN)C(=O)N[C@@H](CC(C)C)C(N)=O

MIC [1]: > 100 µM
SMILES: CCC(C)CCC(=O)N[C@H](CCCCN)C(=O)N[C@@H](CCCCN)C(=O)N[C@@H](CCCCN)C(=O)N[C@@H](CC(C)C)C(=O)N[C@H](Cc1ccccc1)C(=O)N[C@@H](CCCCN)C(=O)N[C@@H](CCCCN)C(=O)N[C@@H](CC(C)C)C(N)=O (some centres not stated)

MIC [1]: 1.56 µM (≈ 1.44 µg/mL)
SMILES: C[C@@H]1[C@H](O)[C@@H](C)/C=C/C=C/C=C/C=C/C=C/C=C/C=C/[C@H](O[C@@H]2O[C@H](C)[C@@H](O)[C@H](N)[C@@H]2O)C[C@@H]2O[C@](O)(C[C@@H](O)C[C@@H](O)[C@H](O)CC[C@@H](O)C[C@@H](O)CC(=O)O[C@H]1C)C[C@H](O)[C@H]2C(=O)O [AMPHOTERICIN B]
MBIC50 [3]: 0.78 µM | MBEC50 [4]: 6.25 µM | Activity [5]: inactive | hemolysis at 1 h, 6 µM [6]: 50% | Activity [7]: Active | Activity [8]: Active | Activity [9]: Active

MIC [1]: 100 µM (≈ 98.9 µg/mL) | Activity [2]: inactive
SMILES: CCCCCC(=O)N[C@H](CCN)C(=O)N[C@@H](CCN)C(=O)N[C@@H](CCN)C(=O)N[C@@H](CC(C)C)C(=O)N[C@H](Cc1ccccc1)C(=O)N[C@@H](CCN)C(=O)N[C@@H](CCN)C(=O)N[C@@H](CC(C)C)C(N)=O

MIC [1]: 12.5 µM (≈ 23.5 µg/mL) | MIC [10]: 3.12 µM | MIC [12]: 1.56 µM
SMILES: CCC(C)CCC(=O)N[C@H](CCN)C(=O)N[C@@H](CCN)C(=O)N[C@@H](CCN)C(=O)N[C@@H](CC(C)C)C(=O)N[C@H](Cc1ccccc1)C(=O)N[C@@H](CCN)C(=O)N[C@@H](CCN)C(=O)N[C@@H](CC(C)C)C(=O)N[C@H](CCN)C(=O)N[C@@H](CCN)C(=O)N[C@@H](CCN)C(=O)N[C@@H](CC(C)C)C(=O)N[C@H](Cc1ccccc1)C(=O)N[C@@H](CCN)C(=O)N[C@@H](CCN)C(=O)N[C@@H](CC(C)C)C(N)=O (some centres not stated)
fractional inhibitory concentration index (FICI) [11]: 2.24 | fractional inhibitory concentration index (FICI) [13]: 1.12 | Ratio [14]: 4 | Ratio [15]: 8 - 32

MIC [1]: > 100 µM
SMILES: CC(C)C[C@H](NC(=O)[C@H](CCN)NC(=O)[C@H](CCN)NC(=O)[C@@H](Cc1ccccc1)NC(=O)[C@H](CC(C)C)NC(=O)[C@H](CCN)NC(=O)[C@H](CCN)NC(=O)[C@@H](CCN)NC(=O)[C@H](N)CS)C(N)=O

MIC [1]: 50 µM (≈ 50.2 µg/mL) | MIC [10]: 12.5 µM | MIC [12]: 1.56 µM
SMILES: CCC(C)CCC(=O)N[C@H](CCN)C(=O)N[C@@H](CCN)C(=O)N[C@@H](CCN)C(=O)N[C@@H](CC(C)C)C(=O)N[C@H](Cc1ccccc1)C(=O)N[C@@H](CCN)C(=O)N[C@@H](CCN)C(=O)N[C@@H](CC(C)C)C(N)=O (stereo partly drawn) ({Hexanoyl(4ξ-Me)}-[dDab][Dab][Dab]L[dF][Dab][Dab]L-NH2)
Ratio [16]: 2 | fractional inhibitory concentration index (FICI) [11]: 8.26 | fractional inhibitory concentration index (FICI) [13]: 1.03 | Ratio [14]: 4 | Ratio [15]: 8 - 32
